We go through seven compounds from PMC8515607 (ACS Omega, 2021).

Experiment [1] deals with A549. Briefly: cells. In kind it is cell-based, human. The conditions noted are these: for IC50: Homo sapiens, A549, 72 h, read-out: A549 IC50 (nM), 72 h exposure, SRB, mean ± SD; for A549 SI: selectivity index = IC50 BALB/3T3 / IC50 A549.
Experiment [2] relates to MCF-7. Put plainly: cells. In kind it is cell-based, human. The conditions noted are these: for IC50: Homo sapiens, MCF7, 72 h, read-out: MCF-7 IC50 (nM); for MCF-7 SI: selectivity index = IC50 BALB/3T3 / IC50 MCF-7.
Experiment [3] has as its system LoVo. Put plainly: cells. In kind it is cell-based, human. Conditions: for IC50: Homo sapiens, LoVo, 72 h, read-out: LoVo IC50 (nM); for LoVo SI: selectivity index = IC50 BALB/3T3 / IC50 LoVo.
The test system of experiment [4] is LoVo/DX. Briefly: cells. Format: cell-based, human. Conditions: for LoVo/DX RI: resistance index = IC50 LoVo/DX / IC50 LoVo; for LoVo/DX SI: selectivity index = IC50 BALB/3T3 / IC50 LoVo/DX.
Experiment [5] has as its system A549, MCF-7, and LoVo cells. Briefly: Antiproliferative activity, values quoted jointly for three tumor lines. The conditions noted are these: Homo sapiens; summary of Table 1; read-out: IC50 against A549, MCF-7, and LoVo cells (span over the three lines). Format: cell-based, human. The source says: The A549 and MCF7 cell lines were purchased from the European Collection of Authenticated Cell Cultures (ECACC, Salisbury, U.K., 86012804 and 86012803). The LoVo cell line was purchased from the American Type Culture Collection (CCL-229, ATCC, Manassas, VA), and LoVo/DX by courtesy of Prof. E. Borowski (Technical University of Gdańsk, Gdańsk, Poland). The BALB/3T3 cell line was purchased from the American Type Culture Collection (CCL-163, ATCC, Manassas, VA). All of the cell lines are maintained in the Institute of Immunology and Experimental Therapy (IIET), Wroclaw, Poland.
A549 cells were cultured in a mixture of OptiMEM and Roswell Park Memorial Institute (RPMI) 1640 (1:1) medium (IIET, Wroclaw, Poland), supplemented with 10% fetal bovine serum HyClone (GE Healthcare) and 2 mM L-glutamine (Sigma-Aldrich, Germany). MCF7 cells were cultured in a mixture of Eagle’s medium (IIET, Wroclaw, Poland), supplemented with 10% fetal bovine serum, 2 mM L-glutamine, and insulin (Sigma-Aldrich, Germany). LoVo and LoVo/DX cells were cultured in F12K medium (Corning), supplemented with 10% fetal bovine serum HyClone (GE Healthcare) and 0.1 μg/mL doxorubicin (Accord) for LoVo/DX. BALB/3T3 fibroblasts were cultured in Dulbecco’s medium (Gibco), supplemented with 10% fetal bovine serum (GE Healthcare) and 2 mM L-glutamine (Sigma-Aldrich, Germany). All culture media contained antibiotics: 100 U/mL penicillin (Polfa-Tarchomin, Poland) and 0.1 mg/mL streptomycin (Sigma-Aldrich, Germany). All cell lines were cultured during entire experiment in humid atmosphere at 37 °C and 5% CO2.
All cell lines were exposed to each tested agent at different concentrations in the range 100–0.00001 μg/mL for 72 h. The cells were also exposed to the reference drug cisplatin (Teva Pharmaceuticals, Poland) and doxorubicin (Accord Healthcare Limited, U.K.). Additionally, all cell lines were exposed to dimethyl sulfoxide (DMSO) (solvent used for tested compounds) (POCh, Poland) at concentrations corresponding to those present in tested agents dilutions. After 72 h, sulforhodamine B (SRB) assay was performed.[57]
After 72 h of incubation with the tested compounds, the cells were fixed in situ by gently adding cold 50% trichloroacetic acid (TCA) (POCh, Poland) and were incubated at room temperature for 1 h. Then, the wells were washed four times with water and air-dried. Next, 0.1% solution of sulforhodamine B (Sigma-Aldrich, Germany) in 1% acetic acid (POCh, Poland) was added to each well and the plates were incubated at room temperature for 0.5 h. After incubation time, unbound dye was removed by washing plates four times with 1% acetic acid, whereas stain bound to cells was solubilized with 10 mM Tris base (Sigma-Aldrich, Germany). Absorbance of each solution was read at Synergy H4 Hybrid Multi-Mode Microplate Reader (BioTek Instruments) at the 540 nm wavelength.
IC50 values were calculated in Excel sheet using formulas adapted by Mateusz Psurski fromCheburator 0.4, Dmitry Nevozhay software (version 1.2.0 software by Dmitry Nevozhay, 2004–2014, http://www.cheburator.nevozhay.com, freely available) for each experiment.[58] Compounds at each concentration were tested in triplicate in a single experiment, and each experiment was repeated at least three times independently.

Experiment [6] has as its system BALB/3T3. Put plainly: In vitro antiproliferative activity, SRB assay, normal fibroblasts BALB/3T3. In kind it is cell-based. Conditions: Mus musculus, BALB/3T3, normal murine embryonic fibroblasts, 72 h, mean ± SD.
Setting [7] is: Homo sapiens, LoVo/DX, 72 h, read-out: LoVo/DX IC50 (nM), 72 h exposure, SRB, mean ± SD.
The mark [8] stands for this setting: read-out: LoVo/DX IC50, 72 h exposure, SRB, mean ± SD.

Read-outs that look alike come from different tables or passages of the source. Bounds are passed on as bounds.

Take `CCCCc1cn([C@H]2CCc3cc(OC)c(OC)c(OC)c3-c3ccc(NC)c(=O)cc32)nn1` [Compound 7]: the IC50 is 6.4 ± 3.9 nM in experiment [1]; 5.4 ± 3.7 nM in experiment [2]; 3.1 ± 1.3 nM in experiment [3]; less than 30 nM in experiment [4] (setting [7]); 23 ± 11 nM in experiment [4] (setting [8]); 3.1 to 6.4 nM in experiment [5]. Moreover, the IC50 in experiment [6] was determined as 9.9 ± 3.7 nM. Besides, the “A549 SI” value in experiment [1] amounted to 1.5. In experiment [2], the “MCF-7 SI” value was found to be 1.8. In experiment [3], the “LoVo SI” value was found to be 3.2. For the same compound, in experiment [4], the “LoVo/DX RI” value came out at 7.4. In addition, the “LoVo/DX SI” value in experiment [4] is 0.4.

Consider `CNc1ccc2c(cc1=O)[C@@H](n1cc(CN)nn1)CCc1cc(OC)c(OC)c(OC)c1-2` [Compound 8], for which the IC50 in experiment [1] is 70 ± 23 nM; in experiment [2], 34 ± 16 nM; in experiment [3], 140 ± 56 nM; in experiment [4] (setting [7]), 12000 ± 2400 nM; in experiment [5], 30 to 140 nM; in experiment [6] it was 400 ± 37 nM. Besides, the “A549 SI” value in experiment [1] stood at 5.7. The “MCF-7 SI” value in experiment [2] was 11.8. In addition, the “LoVo SI” value in experiment [3] is given as 2.9. In experiment [4], the “LoVo/DX RI” value is given as 86. The “LoVo/DX SI” value in experiment [4] is listed as less than 0.1.

Consider `CNc1ccc2c(cc1=O)[C@@H](n1cc(C(=O)OC)nn1)CCc1cc(OC)c(OC)c(OC)c1-2` [Compound 18], for which the IC50 is 13 ± 2.3 nM in experiment [1]; 12 ± 2.7 nM in experiment [2]; 12 ± 4.3 nM in experiment [3]; 280 ± 77 nM in experiment [4] (setting [7]); 10 to 25 nM in experiment [5]; 20 ± 13 nM in experiment [6]. Moreover, the “A549 SI” value in experiment [1] is 1.5. Moreover, the “MCF-7 SI” value in experiment [2] was determined as 1.7. Further, the “LoVo SI” value in experiment [3] stood at 1.7. The “LoVo/DX RI” value in experiment [4] is recorded as 23. Besides, the “LoVo/DX SI” value in experiment [4] turned out to be 0.1.

In the case of `CCOC(=O)c1cn([C@H]2CCc3cc(OC)c(OC)c(OC)c3-c3ccc(NC)c(=O)cc32)nn1` [Compound 19], the IC50 is 17 ± 0.8 nM in experiment [1]; 11 ± 3.7 nM in experiment [2]; 13 ± 3.5 nM in experiment [3]; 220 ± 23 nM in experiment [4] (setting [7]); 10 to 25 nM in experiment [5]; 24 ± 11 nM in experiment [6]. Further, in experiment [1], the “A549 SI” value was determined as 1.4. The “LoVo SI” value in experiment [3] is reported as 1.8. The “LoVo/DX RI” value in experiment [4] amounted to 17. The “LoVo/DX SI” value in experiment [4] worked out at 0.1.

On to `CNc1ccc2c(cc1=O)[C@@H](n1cc(C(=O)OCc3ccc(F)cc3)nn1)CCc1cc(OC)c(OC)c(OC)c1-2` [Compound 21], for which the IC50 was 21 ± 7.7 nM in experiment [1]; 21 ± 8 nM in experiment [2]; 21 ± 6.4 nM in experiment [3]; 530 ± 110 nM in experiment [4] (setting [7]); 10 to 25 nM in experiment [5]; 25 ± 5.6 nM in experiment [6]. For the same compound, the “A549 SI” value in experiment [1] was 1.2. For the same compound, in experiment [2], the “MCF-7 SI” value was 1.2. In addition, the “LoVo SI” value in experiment [3] was found to be 1.2. In addition, the “LoVo/DX RI” value in experiment [4] is on record as 25. In addition, the “LoVo/DX SI” value in experiment [4] was 0.1.

Consider `CNc1ccc2c(cc1=O)[C@@H](n1cc(CNC(=O)C(Cl)Cl)nn1)CCc1cc(OC)c(OC)c(OC)c1-2` [Compound 31], for which the IC50 is 3.3 ± 1.1 nM in experiment [1]; 3 ± 1.5 nM in experiment [2]; 3.1 ± 1.1 nM in experiment [3]; no more than 1000 nM in experiment [4] (setting [7]); 830 ± 220 nM in experiment [4] (setting [8]); 2.7 to 6.3 nM in experiment [5]. In experiment [6], the IC50 amounted to 9.9 ± 3 nM. In addition, the “A549 SI” value in experiment [1] came out at 3.0. The “MCF-7 SI” value in experiment [2] came out at 3.3. In addition, the “LoVo SI” value in experiment [3] amounted to 3.2. In addition, in experiment [4], the “LoVo/DX RI” value is reported as 270. In experiment [4], the “LoVo/DX SI” value is on record as less than 0.1.

In the case of `CNc1ccc2c(cc1=O)[C@@H](n1cc(CNC(=O)CCCCCl)nn1)CCc1cc(OC)c(OC)c(OC)c1-2` [Compound 32], the IC50 was 4.4 ± 1.3 nM in experiment [1]; 2.7 ± 1.1 nM in experiment [2]; 5 ± 0.4 nM in experiment [3]; 2800 ± 200 nM in experiment [4] (setting [7]); 2.7 to 6.3 nM in experiment [5]; 22 ± 5.6 nM in experiment [6]. Also, the “A549 SI” value in experiment [1] was found to be 5.0. Further, the “MCF-7 SI” value in experiment [2] is listed as 8.1. The “LoVo SI” value in experiment [3] is recorded as 4.4. Moreover, the “LoVo/DX RI” value in experiment [4] worked out at 560. In experiment [4], the “LoVo/DX SI” value is less than 0.1.
